Measured values taken from patent publication US8927498B2, “Compositions and methods useful in enhancement of memory” (The Translational Genomics Research Institute, priority 2010, dated 2015).
Entries after “also recorded” stand apart in the source; their conditions may differ.

Columns and labels:
[1] = tested on: hippocampal expression of candidate genes; test: hippocampal expression of candidate genes, Illumina RatRef-12 expression BeadChip; format: in vivo, rat
Excerpt: (§1) Following sacrifice, the left hippocampus was utilized for genome-wide expression profiling. […] These included Adcyap1 with fold change (FC) of 1.5, and p=0.029, Tiam1 with FC of −1.5 and p=0.028, and Filip1 with FC of −1.75 and p=0.032 (Table 1). The RT-PCR validation of the fold change of FILIP1 and Tiam1 is shown in Table 2 and Table 3, respectively.

[2] = tested on: seventeen-month-old Fischer-344 male rats (aged rat model of cognitive decline); test: water-escape plus maze, spatial working memory; format: in vivo; conditions: 17-month-old Fischer-344 male rats, 1 mg/kg/day, vs vehicle (saline), n=9
Protocol: (§2) In one embodiment of the present disclosed invention, the transduction complex comprises a fusion peptide including a TAT protein transduction domain and residues surrounding two known serine phosphorylation targets (Ser159 and Ser163) within MARCKS (SEQ ID NO: 3). The compound was administered to seventeen-month-old rats and behavioral spatial working memory of the rats was assessed by behavior testing. […] Such assays include, without limitation, the Morris water maze and the radial arm water maze, plus maze. For example, when employing the Morris water maze, a rat is trained to swim to a submerged platform. The rat can then be treated with an agent at a particular dose for a particular duration. Following treatment, the mean escape latency (i.e., time to find platform) is measured and compared to the mean escape latency of a control. […] Following treatment, the ability of the rat to remember a newly-learned path is measured and compared to that of a control. […] In the water Plus Maze test, the variables measured include the percentage of time spent in the open and closed areas of the maze, the latency to leave the central platform, the total number of crossings between the various open and closed areas of the maze, and the number of crossings into the open areas of the maze divided by the total number of crossings. […]

[3] = tested on: seventeen-month-old Fischer-344 male rats (aged rat model of cognitive decline); test: water-escape radial arm maze, spatial working memory; format: in vivo; conditions: 17-month-old Fischer-344 male rats, 1 mg/kg/day, vs vehicle (saline)
Protocol: as §2

Tiam1 = test: RT-PCR validation of Tiam1 normalized to GADPH; format: in vivo, rat; conditions: n = 9; vehicle 1.02
Excerpt: as §1

FILIP1 = test: RT-PCR validation of FILIP1 (normalized to GAPDH); format: in vivo, rat; conditions: n = 9; vehicle 1.28
Excerpt: as §1

[4] = hippocampus, treated vs. vehicle rats, Mann-Whitney
[5] = hippocampus, treated vs. vehicle rats, T-Test
[6] = left hippocampus, genome-wide expression profiling

SEQ ID NO: 1: fusion peptide including a TAT protein transduction domain and residues surrounding two known serine phosphorylation targets (Ser159 and Ser163) within MARCKS (YGRKKRRQRRRCKRFSFKKSFKLSGFSFKK; TAT MARCKS fusion)
Fold Change Filip1 [1, 4]: −1.747
Fold Change Gna1 [1, 4]: −1.534
Fold Change Ptpro [1, 4]: −1.708
Fold Change Tiam1 [1, 4]: −1.510
Fold Change Tp53i11_predicted [1, 4]: −1.581
Fold Change Adcyap1 [1, 5]: 1.554
Fold Change Filip1 [1, 5]: −1.747
Fold Change LOC501145 [1, 5]: 1.566
Fold Change Perp_predicted [1, 5]: −1.647
Fold Change Tiam1 [1, 5]: −1.499
Fold Change Tp53i11_predicted [1, 5]: −1.554
fold change (FC) Adcyap1 [1, 6]: 1.5
fold change (FC) Filip1 [1, 6]: −1.75
fold change (FC) Tiam1 [1, 6]: −1.5
working memory performance in water-escape plus maze [2]: acquired the plus maze task at a faster rate; also recorded: enhanced working memory performance
working memory performance in water-escape radial arm maze ([3]; n=9): better able to process multiple items of information; also recorded: enhanced working memory performance
working memory performance in water-escape radial arm maze ([3]; n=9, listed as MARCKS peptide decoy): better performance in the radial arm water maze
RT-PCR Tiam1 Average normalized to GADPH (Tiam1): 0.89
RT-PCR FILIP1 Average (normalized to GAPDH) (FILIP1): 1.20
